Results taken from ChEMBL document CHEMBL4422618, “Translational impact of novel widely pharmacological characterized mofezolac-derived COX-1 inhibitors combined with bortezomib on human multiple myeloma cell lines viability” (Eur J Med Chem, 2019).
Calls of active or inactive are those of the source. No cut-off for these calls is given here.

How the values were obtained:
[1] = Genotoxicity in Escherichia coli PQ37 at 500 uM after overnight incubation by SOS chromotest; type: toxicity
[2] = Mutagenicity in Salmonella typhimurium TA100 at 500 uM by Ames test; type: toxicity; settings: salmonella enterica subsp. enterica serovar typhimurium
Plasma [3] = assay: Anticoagulant activity in human platelet poor plasma assessed as activated partial thromboplastin time at 100 uM incubated for 15 mins at room temperature and subsequent incubation for 2 mins at 37 degreeC followed by cephalin addition and measured after 2 mins for every secs in presence of CaCl2; type: functional
NCI-H929 [4] = assay: Cytotoxicity against human NCI-H929 cells assessed as reduction in cell viability at […] after 48 hrs by CCK8 assay; type: functional, cell-based
[5] = Mutagenicity in Salmonella typhimurium TA97 at 500 uM by Ames test; type: toxicity; settings: salmonella enterica subsp. enterica serovar typhimurium
RPMI-8226 [6] = assay: Induction of apoptosis in human RPMI8226 cells assessed as early apoptotic cells at […] after 48 hrs in presence of bortezomib by Annexin-V/propidium iodide staining based flow cytometric method (reference value: 1.05%); type: functional
[7] = Genotoxicity in Escherichia coli PQ35 at 500 uM after overnight incubation by SOS chromotest; type: toxicity
[8] = Mutagenicity in Salmonella typhimurium TA102 at 500 uM by Ames test; type: toxicity; settings: salmonella enterica subsp. enterica serovar typhimurium
RPMI-8226 [9] = assay: Cell cycle arrest in human RPMI8226 cells assessed as accumulation at S phase at […] after 48 hrs by propidium iodide/RNase staining based flow cytometric method; type: functional
NCI-H929 [10] = assay: Induction of apoptosis in human NCI-H929 cells assessed as late apoptotic cells at […] after 48 hrs by Annexin-V/propidium iodide staining based flow cytometric method (reference value: 0.23%); type: functional
NCI-H929 [11] = assay: Induction of apoptosis in human NCI-H929 cells assessed as late apoptotic cells at […] after 48 hrs in presence of bortezomib by Annexin-V/propidium iodide staining based flow cytometric method (reference value: 0.23%); type: functional
RPMI-8226 [12] = assay: Induction of apoptosis in human RPMI8226 cells assessed as late apoptotic cells at […] after 48 hrs in presence of bortezomib by Annexin-V/propidium iodide staining based flow cytometric method (reference value: 0.21%); type: functional
RPMI-8226 [13] = assay: Cytotoxicity against human RPMI8226 cells assessed as reduction in cell viability at 42 nM after 48 hrs by CCK8 assay relative to control; type: functional
NCI-H929 [14] = assay: Induction of apoptosis in human NCI-H929 cells assessed as necrotic cells at […] after 48 hrs in presence of bortezomib by Annexin-V/propidium iodide staining based flow cytometric method (reference value: 0.0034%); type: functional
NCI-H929 [15] = assay: Cell cycle arrest in human NCI-H929 cells assessed as accumulation at G0/G1 phase at […] in presence of bortezomib after 48 hrs by propidium iodide/RNase staining based flow cytometric method relative to bortezomib alone; type: functional
RPMI-8226 [16] = assay: Potentiation of bortezomib-induced cytotoxicity against human RPMI8226 cells assessed as reduction in cell viability at […] after 48 hrs in presence of bortezomib by CCK8 assay; type: functional
NCI-H929 [17] = assay: Induction of apoptosis in human NCI-H929 cells assessed as early apoptotic cells at […] after 48 hrs in presence of bortezomib by Annexin-V/propidium iodide staining based flow cytometric method (reference value: 17.1%); type: functional
RPMI-8226 [18] = assay: Cell cycle arrest in human RPMI8226 cells assessed as accumulation at G0/G1 phase at […] in presence of bortezomib after 48 hrs by propidium iodide/RNase staining based flow cytometric method relative to bortezomib; type: functional
RPMI-8226 [19] = assay: Cell cycle arrest in human RPMI8226 cells assessed as accumulation at S phase at […] in presence of bortezomib after 48 hrs by propidium iodide/RNase staining based flow cytometric method relative to bortezomib; type: functional
NCI-H929 [20] = assay: Induction of apoptosis in human NCI-H929 cells assessed as early apoptotic cells at […] after 48 hrs by Annexin-V/propidium iodide staining based flow cytometric method (reference value: 17.1%); type: functional
NCI-H929 [21] = assay: Cell cycle arrest in human NCI-H929 cells assessed as accumulation at S phase at […] in presence of bortezomib after 48 hrs by propidium iodide/RNase staining based flow cytometric method relative to bortezomib alone; type: functional
NCI-H929 [22] = assay: Induction of apoptosis in human NCI-H929 cells assessed as necrotic cells at […] after 48 hrs by Annexin-V/propidium iodide staining based flow cytometric method (reference value: 0.0034%); type: functional
RPMI-8226 [23] = assay: Induction of apoptosis in human RPMI8226 cells assessed as necrotic cells at […] after 48 hrs in presence of bortezomib by Annexin-V/propidium iodide staining based flow cytometric method (reference value: 0.090%); type: functional
NCI-H929 [24] = assay: Induction of apoptosis in human NCI-H929 cells assessed as viable cells at […] after 48 hrs in presence of bortezomib by Annexin-V/propidium iodide staining based flow cytometric method (reference value: 82.6%); type: functional; settings: NCI-H929, 48 h, read-out: Activity
RPMI-8226 [25] = assay: Cell cycle arrest in human RPMI8226 cells assessed as accumulation at G0/G1 phase at […] after 48 hrs by propidium iodide/RNase staining based flow cytometric method; type: functional
RPMI-8226 [26] = assay: Cell cycle arrest in human RPMI8226 cells assessed as reduction in accumulation at G2/M phase at […] in presence of bortezomib after 48 hrs by propidium iodide/RNase staining based flow cytometric method relative to bortezomib; type: functional
[27] = Hemolytic activity in erythrocytes (unknown origin) at 100 uM after 3 hrs by spectrophotometric analysis; type: ADME, cell-based, Erythrocyte; settings: read-out: Activity
RPMI-8226 [28] = assay: Induction of apoptosis in human RPMI8226 cells assessed as viable cells at […] after 48 hrs in presence of bortezomib by Annexin-V/propidium iodide staining based flow cytometric method (reference value: 98.7%); type: functional; settings: RPMI-8226, 48 h, read-out: Activity
Plasma [29] = assay: Anticoagulant activity in human platelet poor plasma assessed as prothrombin time at 100 uM incubated for 15 mins at room temperature and subsequent incubation for 2 mins at 37 degreeC followed by PBS addition and measured after 3 mins for every secs in presence of calcium thromboplastin; type: functional
NCI-H929 [30] = assay: Induction of apoptosis in human NCI-H929 cells assessed as viable cells at […] after 48 hrs by Annexin-V/propidium iodide staining based flow cytometric method (reference value: 82.6%); type: functional; settings: NCI-H929, 48 h, read-out: Activity
NCI-H929 [31] = assay: Potentiation of bortezomib-induced cytotoxicity against human NCI-H929 cells assessed as reduction in cell viability at […] after 48 hrs in presence of bortezomib by CCK8 assay; type: functional, cell-based
[32] = Mutagenicity in Salmonella typhimurium TA98 at 500 uM by Ames test; type: toxicity; settings: salmonella enterica subsp. enterica serovar typhimurium
Platelet = assay: Antiplatelet activity in human platelet rich plasma assessed as inhibition of arachidonic acid-induced platelet aggregation preincubated for 2 mins followed by arachidonic acid addition by turbidimetric method; type: functional, cell-based

- IC50 (Platelet): 450 nM
SMILES: COc1ccc(-c2noc(CC(=O)O)c2-c2ccc(OC)cc2)cc1 [MOFEZOLAC]
- Activity [1]: Non-Toxic
- Activity [2]: Non-Toxic
- APTT (Plasma [3]): 50.8 s
- Activity (NCI-H929 [4]): inactive
- Activity [5]: Non-Toxic
- Activity (RPMI-8226 [6]): 7.86%
- Activity [7]: Non-Toxic
- Activity [8]: Non-Toxic
- Activity (RPMI-8226 [9]): inactive
- Activity (NCI-H929 [10]): 0.13%
- Activity (NCI-H929 [11]): 0.24%
- Activity (RPMI-8226 [12]): 0.31%
- Activity (RPMI-8226 [13]): 1%
- Activity (NCI-H929 [14]): 0%
- Activity (NCI-H929 [15]): 15%
- Activity (RPMI-8226 [16]): 56%
- Activity (NCI-H929 [17]): 64.3%
- Activity (RPMI-8226 [18]): Active
- Activity (RPMI-8226 [19]): Active
- Activity (NCI-H929 [20]): 18.7%
- Activity (NCI-H929 [21]): 15%
- Activity (NCI-H929 [22]): 0%
- Activity (RPMI-8226 [23]): 0.006%
- viability at […] (NCI-H929 [24]): 35.4%
- Activity (RPMI-8226 [25]): inactive
- Activity (RPMI-8226 [26]): Active
- hemolysis at 3 h, 100 µM [27]: 0%
- viability at […] (RPMI-8226 [28]): 91.8%
- PT (Plasma [29]): 14.2 s
- viability at […] (NCI-H929 [30]): 81.1%
- Activity (NCI-H929 [31]): inactive
- Activity [32]: Non-Toxic
